Results published in publication PMC6013238, “Development of novel NEMO-binding domain mimetics for inhibiting IKK/NF-κB activation” (PLoS Biology, 2018).
Several values for one entry are separate records, joined by “and”; a condition that tells them apart may be missing. Equal values may be shown once.

What was measured:
mdx mice = experiment: Chronic treatment of mdx mice, CD68 immunostaining (macrophages); format: in vivo, mouse; conditions: for CD68+ cells, number of cells per myofiber: SR12343 30 mg/kg 4 wk, single measures and ave, 30 mg/kg
Description: To determine whether SR12343 and SR12460 improve muscle pathology, TA muscle was stained with hematoxylin–eosin to assess inflammatory infiltration, necrosis, central nucleation, and fibrosis. […] In addition, Masson trichrome stain was conducted to further measure muscle fibrosis. Chronic treatment with SR12343 reduced muscle fibrosis (blue) in diaphragm and TA muscle tissues in comparison to control group (Fig 8A & 8B). To further quantitate the extent of inflammation in mdx muscle tissues, diaphragm and TA muscle were immunostained for cluster of differentiation 68 (CD68), a macrophage marker. Treatment with SR12343 reduced the number of CD68^+ cells by almost 50% per myofiber in both diaphragm and TA tissues (Fig 8A & 8B). […] To quantify the average fiber size in an unbiased way, TA muscle was stained with laminin to outline myofibers, and Feret diameter of all myocytes was quantitated in a whole muscle section.
Fig 8 Chronic treatment with NBD mimetics reduces muscle fibrosis by decreasing macrophage infiltration in mdx mice. (A, B) Trichrome and CD68 staining of (A) diaphragm and (B) TA muscle from 7-wk-old, SR12343-treated or -untreated mdx mice. CD68 (red): marker of tissue macrophage; utrophin (green): stain for myofiber; DAPI (blue): nuclei. Trichrome images were taken at the magnification of 4× for TA and 10× for diaphragm. IHC images were taken at 10× for TA and 20× for diaphragm. Representative images were shown for each treatment group. Data were shown as mean +/− SEM. *P < 0.05; **P < 0.01; ***P < 0.001. Underlying data can be found in S1 Data. CD68, cluster of differentiation 68; IHC, immunohistochemistry; NBD, NEMO-binding domain; NEMO, NF-κB essential modulator; TA, tibialis anterior.
The frozen tissue sections were fixed with 4% paraformaldehyde for 1 h and incubated with 1% BSA for blocking. The primary antibodies CD68 (Abcam, Cambridge, MA) and utrophin (Santa Cruz) were applied at 1:200 for 2 h. The secondary antibodies Alexa Fluor 594 and Alexa Fluor 488 were then applied at 1:400 for 1 h. DAPI (1;1000) solution was used to stain the cell nucleus. All the processes were performed at room temperature.

NEMO/IKKα interaction = molecular target: T1, NEMO/IKKα interaction (Mus musculus, UniProt O88522); experiment: Co-immunoprecipitation of NEMO and IKKα in Raw 264.7 cells; format: cell-based; conditions: 0, 25, 50, 100, 150 μM, 30 min
T1 construct: Co-immunoprecipitation of endogenous IKKβ and NEMO; endogenous in cells; host or cells: Raw 264.7
Description: To determine whether the novel NBD mimetics target the NEMO-IKKβ interaction in vivo, co-immunoprecipitations were performed using extracts from Raw 264.7 macrophages (Fig 5A). […] No interaction between NEMO and TNF receptor-associated factor 2 (TRAF2) or IκBα was observed under these conditions. […] The levels of phosphorylated IKK complex, IκBα, and p65 in response to TNF-α and LPS were all reduced by SR12343 (Fig 5D & 5E). […] However, there were no changes in the levels of phospho-c-Jun N-terminal kinase (p-JNK), p-p38MAPK, total JNK, and p38MAPK by treatment with SR12343 (150 μM) in response to TNF-α or LPS stimulation (Fig 5G & 5H). […]
(A) Co-IP analysis detecting the IKKβ/NEMO interaction. […] NEMO-binding products were then analyzed for levels of IKKβ, IKKα, TRAF2, and IκBα (negative control), and levels of NEMO were used as a loading control (left panel). […] The levels of IKKβ-FLAG binding to GST-NEMO were determined by western blot analysis with GST-NEMO used as a loading control. […] Cell lysates were analyzed for activity of the IKK/NF-κB signaling pathway including activation of IKK complex, IκBα, and p65. […] Cell lysates were harvested and analyzed for activation of noncanonical NF-κB signaling, the processing of p100 to p52. […]

T1 sequence (O88522 whole entry): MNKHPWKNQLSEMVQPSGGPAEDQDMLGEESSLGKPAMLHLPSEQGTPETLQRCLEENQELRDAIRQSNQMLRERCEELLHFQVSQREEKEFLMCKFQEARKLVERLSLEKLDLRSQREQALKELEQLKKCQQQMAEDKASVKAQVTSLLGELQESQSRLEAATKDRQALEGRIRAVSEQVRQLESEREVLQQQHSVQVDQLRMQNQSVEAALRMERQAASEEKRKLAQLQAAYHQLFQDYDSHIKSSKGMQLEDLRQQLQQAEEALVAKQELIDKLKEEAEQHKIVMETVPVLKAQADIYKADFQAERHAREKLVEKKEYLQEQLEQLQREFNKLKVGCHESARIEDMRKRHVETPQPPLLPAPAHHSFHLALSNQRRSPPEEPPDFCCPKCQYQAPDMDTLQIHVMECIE

O=C(CNc1ccc(Cl)cn1)NCCc1cccc(Br)c1 [SR12343] was tested, and the “CD68+ cells, number of cells per myofiber” value (mdx mice; Fig 8A, diaphragm muscle) was 1.156 and 1.07 and 1.196, the “CD68+ cells, number of cells per myofiber” value (mdx mice; Fig 8A, diaphragm muscle, mean) was 1.14 and the “CD68+ cells, number of cells per myofiber” value (mdx mice; Fig 8B, TA muscle) was 0.646 and 0.5862 and 0.6154. The “CD68+ cells, number of cells per myofiber” value (mdx mice; Fig 8B, TA muscle, mean) was 0.6159, the “Reduction of number of CD68+ cells per myofiber” value (mdx mice; diaphragm and TA tissues) was roughly 50% and the “NEMO/IKKα binding (Co-IP)” value (NEMO/IKKα interaction) was “only a marginal effect”.
